# According to patent US5215916A, “Super glucocorticoid receptors: receptors with increased affinity and specificity for glucocorticoid steriods” (priority 1991, dated 1993):
# Where a chain is given by its changes, count along the chain named.
# Tests used:
# [1] = target: T1, C656G mutant glucocorticoid receptor (Rattus norvegicus, UniProt P06536, C656G/D98G); assay: Competition binding assay with [3H]Dex, COS-7 cytosol, C656G receptor; set-up: Thus the full length receptor was removed from the VARO vector with BamHI and inserted into the SVL vector; expressed in transfected cells; host or cells: COS-7 (cytosol)
# T1 sequence (P06536 1-795 D98G/C656G): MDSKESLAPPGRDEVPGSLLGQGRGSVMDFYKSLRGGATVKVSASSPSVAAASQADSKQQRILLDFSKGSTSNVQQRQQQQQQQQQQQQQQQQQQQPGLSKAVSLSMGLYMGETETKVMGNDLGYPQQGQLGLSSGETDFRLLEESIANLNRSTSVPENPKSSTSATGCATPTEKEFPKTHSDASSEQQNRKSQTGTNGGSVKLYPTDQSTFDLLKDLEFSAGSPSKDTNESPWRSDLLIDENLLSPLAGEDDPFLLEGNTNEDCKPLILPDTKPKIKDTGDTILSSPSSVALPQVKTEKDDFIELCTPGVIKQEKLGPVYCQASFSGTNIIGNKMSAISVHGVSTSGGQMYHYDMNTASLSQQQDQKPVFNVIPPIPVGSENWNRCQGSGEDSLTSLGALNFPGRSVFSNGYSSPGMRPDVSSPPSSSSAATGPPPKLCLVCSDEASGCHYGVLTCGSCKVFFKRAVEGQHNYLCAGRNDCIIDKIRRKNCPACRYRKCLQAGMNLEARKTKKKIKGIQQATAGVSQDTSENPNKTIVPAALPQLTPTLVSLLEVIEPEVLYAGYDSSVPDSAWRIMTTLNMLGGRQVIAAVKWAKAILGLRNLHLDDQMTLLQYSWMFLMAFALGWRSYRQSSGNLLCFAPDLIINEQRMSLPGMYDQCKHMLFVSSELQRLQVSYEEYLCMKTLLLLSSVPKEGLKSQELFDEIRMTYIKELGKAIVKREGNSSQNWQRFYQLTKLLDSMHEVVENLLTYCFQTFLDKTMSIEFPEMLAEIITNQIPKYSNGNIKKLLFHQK
# Experimental: (§1) Monolayer cultures of COS-7 cells were grown in DMEM (Gibco) supplemented with 5% fetal bovine serum (FBS) (Biofluids) at 37° C. in a 5% CO2 incubator. Standard calcium phosphate transfection methods were used to introduce the wild type and mutant receptor expression vectors (pSVL) into COS-7 cells (100 mm plates [Costar] at a cell density of about 10^6 /plate were each treated with 10 μg of plasmid DNA). After ~16 hrs of incubation at 37° C. in a 5% CO2 incubator, the excess calcium phosphate and precipitate were removed by washing with phosphate buffered saline (PBS). The cells were incubated at 37° C. for another ~48 hr in DMEM/ 5% FBS and harvested by trypsinization followed by centrifugation (for 10 min at 1570 ×g) and washing 3 times with PBS. The washed cells were stored at -80° C. until used.
# COS-7 cell cytosol containing the steroid-free receptors was prepared by cell lysis at -80° C. and centrifugation at 15,000 ×g and labeled as described for HTC cells (S. S. Simons and P. A. Miller, Biochem 23:6876-6882 (1984)). Briefly, 30% cytosol solutions containing ~21 mM Na2 MoO4 were prepared with three parts COS-7 cell cytosol, 2 parts pH 9.5 TAPS buffer, and 5 parts pH 8.8 TAPS buffer. The total EtOH in each experiment was kept constant and at a level of ≤1%. […] After incubation for 2.5 hr, the [^3 H]Dex-Mes-labeled solutions were quick-frozen at -78° C. for subsequent SDS-polyacrylamide gel electrophoresis analysis. The specifically bound [^3 H]Dex was determined by first adding a 10% dextran-coated charcoal solution (added volume =20% of reaction solution volume) to remove free steroid and then subtracting the nonspecific binding seen in the presence of excess nonradioactive Dex.
# (§2) Duplicate aliquots (72 μl) of COS-7 cell cytosol (33.5% in pH 8.8 TAPS/27 mM Na2 MoO4 buffer) were treated with 4 μl each of [^3 H]Dex (in pH 8.8 TAPS buffer) and various concentrations of non-radioactive competing steroid (in 20% EtOH in pH 8.8 TAPS buffer) (final concentration of [^3 H]Dex ≈3 ×10^-8 M). The average specific binding was determined after 2.5 or 24 hr of incubation as described above, expressed as percentage of the non-competed control and plotted versus the log10 of the concentration of the competing steroid.
# The specificity of steroid binding was determined by Rodbard correction (Rodbard, 1973) of the data from a competition binding assay (S. S. Simons et al., Biochem. Biophys. Res. Comm. 86:793-800 (1979); Miller and Simons, 1988). The initial data were collected from 2.5 hr binding assays because of concerns about the stability of the receptors over longer times.
# [2] = target: T2, C640S mutant glucocorticoid receptor (Rattus norvegicus, UniProt P06536, C640S/D98G); assay: Competition binding assay with [3H]Dex, COS-7 cytosol, C640S receptor
# T2 construct: Thus the full length receptor was removed from the VARO vector with BamHI and inserted into the SVL vector; expressed in transfected cells; host or cells: COS-7 (cytosol)
# T2 sequence (P06536 1-795 D98G/C640S): T1 sequence (P06536 1-795 D98G/C656G) with C640S, G656C
# Experimental: as §1
# COS-7 cell cytosol containing the steroid-free receptors was prepared by cell lysis at -80° C. and centrifugation at 15,000 ×g and labeled as described for HTC cells (S. S. Simons and P. A. Miller, Biochem 23:6876-6882 (1984)). […] The specifically bound [^3 H]Dex was determined by first adding a 10% dextran-coated charcoal solution (added volume =20% of reaction solution volume) to remove free steroid and then subtracting the nonspecific binding seen in the presence of excess nonradioactive Dex.
# as §2
# The specificity of steroid binding was determined by Rodbard correction (Rodbard, 1973) of the data from a competition binding assay (S. S. Simons et al., Biochem. Biophys. Res. Comm. 86:793-800 (1979); Miller and Simons, 1988). […]
Structure (SMILES),Relative Ka of Steroid Binding to Receptor [1],Relative Ka of Steroid Binding to Receptor [2],"effect of replacement of Cys-656 with glycine on relative affinity ([1]; C656G vs wild type, compared with effect seen for C661S, 2.5 hr incubation)","change in absolute affinity for the glucocorticoid receptor as a result of C656G mutation ([1]; C656G vs wild type, from Table 1B and Table 2, aldosterone only ""perhaps"")"
"C[C@]12CC[C@@H]3c4ccc(O)cc4CC[C@H]3[C@@H]1CC[C@@H]2O [17β-Estradiol, 17β-estradiol]",0.0017 ± 0.0006,0.010 ± 0.007,–,–
"C[C@]12CCC(=O)C=C1CC[C@@H]1[C@@H]2[C@@H](O)C[C@]2(C=O)[C@@H](C(=O)CO)CC[C@@H]12 [Aldosterone, aldosterone]",–,0.18 ± 0.002,less of an effect,decreased
CC#C[C@]1(O)CC[C@H]2[C@@H]3CCC4=CC(=O)CCC4=C3[C@@H](c3ccc(N(C)C)cc3)C[C@@]21C [RU486],2.5 ± 0.7,6.8 ± 2.2,–,–
